Activity calls are given as the source filed them. The rule behind the calls is not given here. Peptide text beside a SMILES is read from it. * marks the point of attachment. X1 = CC(=O)N[C@H]1[C@H](O[C@H]2[C@@H](O)[C@H](O)[C@@H](CO)O[C@@H]2*)O[C@H](CO)[C@@H](O[C@@H]2O[C@H](CO)[C@H](O)[C@H](O[C@]3(C(=O)O)C[C@H](O)[C@@H](NC(C)=O)[C@H]([C@H](O)[C@H](O)CO)O3)[C@H]2O)[C@@H]1O; X2 = CC(=O)N[C@H]1[C@H](O[C@H]2[C@@H](O)[C@H](O)[C@@H](CO)O[C@@H]2*)O[C@H](CO)[C@@H](O[C@@H]2O[C@H](CO)[C@H](O)[C@H](O)[C@H]2O)[C@@H]1O; αMan = OC[C@H]1O[C@H](*)[C@@H](O)[C@@H](O)[C@@H]1O; Hexanoyl(5-oxo) = CC(=O)CCCC(=O)*
How the values were obtained:
[1] = target: Lactotransferrin (Homo sapiens) (UniProt P02788); experiment: Binding affinity to biotin-labeled lactoferrin (unknown origin) at 10 ug/ml in pH 5.6 MES buffer by fluorescence microarray method
Sequence of Lactotransferrin (Homo sapiens) (P02788 whole entry): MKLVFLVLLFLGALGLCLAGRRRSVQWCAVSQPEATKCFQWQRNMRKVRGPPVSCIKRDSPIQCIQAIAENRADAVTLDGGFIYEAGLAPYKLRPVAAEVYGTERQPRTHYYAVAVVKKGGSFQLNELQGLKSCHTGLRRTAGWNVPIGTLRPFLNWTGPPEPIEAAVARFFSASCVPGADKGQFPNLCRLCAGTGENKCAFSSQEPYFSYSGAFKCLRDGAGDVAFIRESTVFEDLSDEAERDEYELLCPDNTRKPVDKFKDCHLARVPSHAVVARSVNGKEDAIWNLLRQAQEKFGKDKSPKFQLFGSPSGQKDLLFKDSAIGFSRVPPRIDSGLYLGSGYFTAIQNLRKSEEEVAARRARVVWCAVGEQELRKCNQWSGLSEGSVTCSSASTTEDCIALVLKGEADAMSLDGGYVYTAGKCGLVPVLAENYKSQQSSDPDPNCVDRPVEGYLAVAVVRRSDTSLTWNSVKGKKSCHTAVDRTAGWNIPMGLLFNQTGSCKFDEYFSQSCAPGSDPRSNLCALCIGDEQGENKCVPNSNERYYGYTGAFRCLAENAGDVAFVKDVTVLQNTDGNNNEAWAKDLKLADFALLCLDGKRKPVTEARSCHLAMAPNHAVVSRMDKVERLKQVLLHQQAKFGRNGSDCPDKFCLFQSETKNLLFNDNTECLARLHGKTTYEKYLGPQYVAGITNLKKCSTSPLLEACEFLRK

Datura stramonium = experiment: Binding affinity to biotin-labeled Datura stramonium agglutinin in pH 7.4 Tris buffer by fluorescence microarray method
Erythrina crista-galli = experiment: Binding affinity to biotin-labeled Erythrina crista-galli agglutinin in pH 7.4 Tris buffer by fluorescence microarray method
Canavalia ensiformis = experiment: Binding affinity to biotin-labeled Canavalia ensiformis agglutinin in pH 7.4 Tris buffer by fluorescence microarray method
[2] = target: Laminin subunit alpha-1 (Homo sapiens) (UniProt P25391); experiment: Binding affinity to biotin-labeled human recombinant laminin-1 at 10 ug/ml in pH 5.6 MES buffer by fluorescence microarray method
Sequence of Laminin subunit alpha-1 (Homo sapiens) (P25391 whole entry): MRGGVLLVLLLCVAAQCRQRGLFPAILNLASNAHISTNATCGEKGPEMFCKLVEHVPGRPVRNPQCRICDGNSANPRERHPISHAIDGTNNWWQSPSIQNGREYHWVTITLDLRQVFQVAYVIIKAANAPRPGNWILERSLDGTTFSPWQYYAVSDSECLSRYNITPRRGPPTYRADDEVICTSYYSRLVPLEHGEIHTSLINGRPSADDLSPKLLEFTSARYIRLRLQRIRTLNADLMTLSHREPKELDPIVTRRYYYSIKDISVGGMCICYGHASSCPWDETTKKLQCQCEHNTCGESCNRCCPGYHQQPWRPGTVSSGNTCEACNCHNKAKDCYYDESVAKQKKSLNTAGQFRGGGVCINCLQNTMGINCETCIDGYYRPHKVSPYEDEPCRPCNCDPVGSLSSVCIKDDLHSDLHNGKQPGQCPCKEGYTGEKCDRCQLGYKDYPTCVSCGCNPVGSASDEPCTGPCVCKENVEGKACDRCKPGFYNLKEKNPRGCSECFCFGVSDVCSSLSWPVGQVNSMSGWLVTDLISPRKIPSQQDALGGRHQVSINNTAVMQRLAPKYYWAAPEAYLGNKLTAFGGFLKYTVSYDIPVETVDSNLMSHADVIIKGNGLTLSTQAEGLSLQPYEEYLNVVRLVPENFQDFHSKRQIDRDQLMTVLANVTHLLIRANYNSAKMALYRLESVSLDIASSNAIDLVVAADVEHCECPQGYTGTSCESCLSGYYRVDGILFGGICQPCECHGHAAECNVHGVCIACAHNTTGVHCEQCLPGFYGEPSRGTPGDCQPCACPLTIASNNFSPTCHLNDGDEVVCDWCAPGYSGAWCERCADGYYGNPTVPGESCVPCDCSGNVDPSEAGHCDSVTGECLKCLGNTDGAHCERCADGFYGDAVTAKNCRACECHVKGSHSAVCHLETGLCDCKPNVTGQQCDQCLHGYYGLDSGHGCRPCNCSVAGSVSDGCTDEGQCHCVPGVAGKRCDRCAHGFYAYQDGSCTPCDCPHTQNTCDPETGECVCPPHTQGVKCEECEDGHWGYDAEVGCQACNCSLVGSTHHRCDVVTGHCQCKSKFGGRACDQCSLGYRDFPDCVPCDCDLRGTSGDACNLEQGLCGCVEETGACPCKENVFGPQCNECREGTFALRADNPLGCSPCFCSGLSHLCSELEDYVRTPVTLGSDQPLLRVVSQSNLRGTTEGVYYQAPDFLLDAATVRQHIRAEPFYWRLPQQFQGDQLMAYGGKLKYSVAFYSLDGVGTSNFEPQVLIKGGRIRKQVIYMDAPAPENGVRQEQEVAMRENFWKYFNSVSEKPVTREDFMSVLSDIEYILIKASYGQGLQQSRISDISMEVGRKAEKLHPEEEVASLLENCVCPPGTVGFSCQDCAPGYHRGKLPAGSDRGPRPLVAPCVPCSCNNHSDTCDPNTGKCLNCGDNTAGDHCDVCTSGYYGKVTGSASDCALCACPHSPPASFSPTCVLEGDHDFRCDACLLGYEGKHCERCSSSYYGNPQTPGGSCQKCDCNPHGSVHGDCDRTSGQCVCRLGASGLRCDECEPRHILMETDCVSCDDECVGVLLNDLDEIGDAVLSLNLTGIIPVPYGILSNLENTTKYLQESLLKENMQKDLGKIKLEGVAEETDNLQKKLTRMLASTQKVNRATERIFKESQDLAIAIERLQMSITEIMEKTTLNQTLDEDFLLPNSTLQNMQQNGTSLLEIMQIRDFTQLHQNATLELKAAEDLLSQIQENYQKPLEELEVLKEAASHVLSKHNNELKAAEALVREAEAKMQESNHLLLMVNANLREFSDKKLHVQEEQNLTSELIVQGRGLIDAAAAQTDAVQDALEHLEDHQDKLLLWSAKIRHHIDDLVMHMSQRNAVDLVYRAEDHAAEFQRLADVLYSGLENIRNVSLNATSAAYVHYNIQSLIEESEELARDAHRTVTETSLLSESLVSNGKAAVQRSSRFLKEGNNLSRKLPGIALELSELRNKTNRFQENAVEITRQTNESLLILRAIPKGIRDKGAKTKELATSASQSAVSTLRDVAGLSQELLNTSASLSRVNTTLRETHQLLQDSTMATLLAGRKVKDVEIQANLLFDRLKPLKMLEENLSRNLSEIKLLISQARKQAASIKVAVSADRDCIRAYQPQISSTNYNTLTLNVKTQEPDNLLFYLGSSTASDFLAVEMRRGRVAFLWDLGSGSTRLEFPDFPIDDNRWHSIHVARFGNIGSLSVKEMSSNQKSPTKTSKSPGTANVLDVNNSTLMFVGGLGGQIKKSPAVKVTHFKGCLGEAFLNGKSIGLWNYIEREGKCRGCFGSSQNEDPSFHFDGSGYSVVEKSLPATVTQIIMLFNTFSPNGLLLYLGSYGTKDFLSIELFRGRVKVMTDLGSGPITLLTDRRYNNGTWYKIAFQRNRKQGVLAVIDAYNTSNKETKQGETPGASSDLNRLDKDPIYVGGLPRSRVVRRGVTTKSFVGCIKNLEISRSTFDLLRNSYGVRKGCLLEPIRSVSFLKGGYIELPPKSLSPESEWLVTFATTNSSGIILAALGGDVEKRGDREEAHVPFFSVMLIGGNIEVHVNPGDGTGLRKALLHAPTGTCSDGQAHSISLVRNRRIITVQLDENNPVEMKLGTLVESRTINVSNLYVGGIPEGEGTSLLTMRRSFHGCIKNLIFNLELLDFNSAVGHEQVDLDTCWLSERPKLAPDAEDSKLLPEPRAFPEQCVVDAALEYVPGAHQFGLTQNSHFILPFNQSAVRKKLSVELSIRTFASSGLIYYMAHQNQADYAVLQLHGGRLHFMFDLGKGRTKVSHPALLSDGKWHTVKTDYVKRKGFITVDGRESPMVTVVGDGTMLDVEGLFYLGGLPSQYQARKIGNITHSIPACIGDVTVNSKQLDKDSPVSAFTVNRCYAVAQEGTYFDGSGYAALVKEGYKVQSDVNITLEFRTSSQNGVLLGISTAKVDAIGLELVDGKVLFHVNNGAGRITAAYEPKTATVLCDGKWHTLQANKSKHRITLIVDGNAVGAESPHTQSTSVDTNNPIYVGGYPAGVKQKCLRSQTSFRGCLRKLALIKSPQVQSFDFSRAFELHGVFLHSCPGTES

[3] = target: Lactotransferrin (Homo sapiens) (UniProt P02788); experiment: Binding affinity to biotin-labeled lactoferrin (unknown origin) at 10 ug/ml in pH 7.4 Tris buffer by fluorescence microarray method
[4] = test system: Sambucus racemosa subsp. sieboldiana; experiment: Binding affinity to biotin-labeled Sambucus sieboldiana agglutinin in pH 7.4 Tris buffer by fluorescence microarray method
Homo sapiens [5] = species on record: Homo sapiens; experiment: Binding affinity to biotin-labeled human recombinant laminin-2 at 10 ug/ml in 5.6 MES buffer by fluorescence microarray method
[6] = Binding affinity to biotin-labeled Agaricus bisporus agglutinin in pH 7.4 Tris buffer by fluorescence microarray method
[7] = target: Laminin subunit alpha-1 (Homo sapiens) (UniProt P25391); experiment: Binding affinity to biotin-labeled human recombinant laminin-1 at 10 ug/ml in pH 7.4 Tris buffer by fluorescence microarray method
Homo sapiens [8] = species on record: Homo sapiens; experiment: Binding affinity to biotin-labeled human recombinant laminin-2 at 10 ug/ml in pH 7.4 Tris buffer by fluorescence microarray method
Arachis hypogaea = experiment: Binding affinity to biotin-labeled Arachis hypogaea agglutinin in pH 7.4 Tris buffer by fluorescence microarray method
Triticum aestivum = experiment: Binding affinity to biotin-labeled Wheat germ agglutinin in pH 7.4 Tris buffer by fluorescence microarray method
Maackia amurensis = experiment: Binding affinity to biotin-labeled Maackia amurensis agglutinin in pH 7.4 Tris buffer by fluorescence microarray method

Compound | Activity [1] | Activity (Datura stramonium) | Activity (Erythrina crista-galli) | Activity (Canavalia ensiformis) | Activity [2] | Activity [3] | Activity [4] | Activity (Homo sapiens [5]) | Activity [6] | Activity [7] | Activity (Homo sapiens [8]) | Activity (Arachis hypogaea) | Activity (Triticum aestivum) | Activity (Maackia amurensis)
CC[C@H](C)[C@H](NC(=O)[C@H](C)NC(=O)CNC(=O)[C@H](CCCNC(=N)N)NC(=O)[C@@H](NC(=O)CCCC(C)=O)[C@@H](C)O)C(=O)N[C@H](C(=O)N[C@@H](CCC(N)=O)C(=O)N[C@H](C(=O)N1CCC[C@H]1C(=O)N[C@H](C(=O)N[C@@H](CC(C)C)C(=O)NCC(=O)N1CCC[C@H]1C(=O)N[C@H](C(=O)N[C@@H](CCC(N)=O)C(=O)N1CCC[C@H]1C(=O)N[C@H](C(=O)N[C@@H](CCCNC(=N)N)C(=O)N[C@H](C(N)=O)C(C)C)[C@@H](C)O)[C@@H](C)CC)[C@@H](C)O)[C@@H](C)O)[C@@H](C)CC ({Hexanoyl(5-oxo)}-TRGAIIQTPTLGPIQPTRV-NH2) | Active | inactive | Active | Active | Active | inactive | Active | Active | Active | Active | inactive | Active | Active | inactive
CC[C@H](C)[C@H](NC(=O)[C@H](C)NC(=O)CNC(=O)[C@H](CCCNC(=N)N)NC(=O)[C@@H](NC(=O)CCCC(C)=O)[C@@H](C)O)C(=O)N[C@H](C(=O)N[C@@H](CCC(N)=O)C(=O)N[C@H](C(=O)N1CCC[C@H]1C(=O)N[C@H](C(=O)N[C@@H](CC(C)C)C(=O)NCC(=O)N1CCC[C@H]1C(=O)N[C@H](C(=O)N[C@@H](CCC(N)=O)C(=O)N1CCC[C@H]1C(=O)N[C@H](C(=O)N[C@@H](CCCNC(=N)N)C(=O)N[C@H](C(N)=O)C(C)C)[C@@H](C)O[C@H]1O[C@H](CO)[C@@H](O)[C@H](O)[C@@H]1O[C@@H]1O[C@H](CO)[C@@H](O[C@@H]2O[C@H](CO)[C@H](O)[C@H](O[C@]3(C(=O)O)C[C@H](O)[C@@H](NC(C)=O)[C@H]([C@H](O)[C@H](O)CO)O3)[C@H]2O)[C@H](O)[C@H]1NC(C)=O)[C@@H](C)CC)[C@@H](C)O[C@H]1O[C@H](CO)[C@@H](O)[C@H](O)[C@@H]1O[C@@H]1O[C@H](CO)[C@@H](O[C@@H]2O[C@H](CO)[C@H](O)[C@H](O[C@]3(C(=O)O)C[C@H](O)[C@@H](NC(C)=O)[C@H]([C@H](O)[C@H](O)CO)O3)[C@H]2O)[C@H](O)[C@H]1NC(C)=O)[C@@H](C)O)[C@@H](C)CC ({Hexanoyl(5-oxo)}-TRGAIIQTPT(X1)LGPIQPT(X1)RV-NH2) | Active | inactive | Active | Active | Active | inactive | Active | Active | Active | Active | inactive | Active | Active | inactive
CC[C@H](C)[C@H](NC(=O)[C@H](C)NC(=O)CNC(=O)[C@H](CCCNC(=N)N)NC(=O)[C@@H](NC(=O)CCCC(C)=O)[C@@H](C)O)C(=O)N[C@H](C(=O)N[C@@H](CCC(N)=O)C(=O)N[C@H](C(=O)N1CCC[C@H]1C(=O)N[C@H](C(=O)N[C@@H](CC(C)C)C(=O)NCC(=O)N1CCC[C@H]1C(=O)N[C@H](C(=O)N[C@@H](CCC(N)=O)C(=O)N1CCC[C@H]1C(=O)N[C@H](C(=O)N[C@@H](CCCNC(=N)N)C(=O)N[C@H](C(N)=O)C(C)C)[C@@H](C)O[C@H]1O[C@H](CO)[C@@H](O)[C@H](O)[C@@H]1O[C@@H]1O[C@H](CO)[C@@H](O[C@@H]2O[C@H](CO)[C@H](O)[C@H](O[C@]3(C(=O)O)C[C@H](O)[C@@H](NC(C)=O)[C@H]([C@H](O)[C@H](O)CO)O3)[C@H]2O)[C@H](O)[C@H]1NC(C)=O)[C@@H](C)CC)[C@@H](C)O)[C@@H](C)O)[C@@H](C)CC ({Hexanoyl(5-oxo)}-TRGAIIQTPTLGPIQPT(X1)RV-NH2) | Active | inactive | Active | Active | Active | inactive | Active | Active | Active | Active | inactive | Active | Active | inactive
CC[C@H](C)[C@H](NC(=O)[C@H](C)NC(=O)CNC(=O)[C@H](CCCNC(=N)N)NC(=O)[C@@H](NC(=O)CCCC(C)=O)[C@@H](C)O)C(=O)N[C@H](C(=O)N[C@@H](CCC(N)=O)C(=O)N[C@H](C(=O)N1CCC[C@H]1C(=O)N[C@H](C(=O)N[C@@H](CC(C)C)C(=O)NCC(=O)N1CCC[C@H]1C(=O)N[C@H](C(=O)N[C@@H](CCC(N)=O)C(=O)N1CCC[C@H]1C(=O)N[C@H](C(=O)N[C@@H](CCCNC(=N)N)C(=O)N[C@H](C(N)=O)C(C)C)[C@@H](C)O[C@H]1O[C@H](CO)[C@@H](O)[C@H](O)[C@@H]1O)[C@@H](C)CC)[C@@H](C)O[C@H]1O[C@H](CO)[C@@H](O)[C@H](O)[C@@H]1O[C@@H]1O[C@H](CO)[C@@H](O[C@@H]2O[C@H](CO)[C@H](O)[C@H](O[C@]3(C(=O)O)C[C@H](O)[C@@H](NC(C)=O)[C@H]([C@H](O)[C@H](O)CO)O3)[C@H]2O)[C@H](O)[C@H]1NC(C)=O)[C@@H](C)O)[C@@H](C)CC ({Hexanoyl(5-oxo)}-TRGAIIQTPT(X1)LGPIQPT(αMan)RV-NH2) | Active | inactive | Active | Active | Active | inactive | Active | Active | Active | Active | inactive | Active | Active | inactive

Second part, the compound after the results:

Activity [1] | Activity (Datura stramonium) | Activity (Erythrina crista-galli) | Activity (Canavalia ensiformis) | Activity [2] | Activity [3] | Activity [4] | Activity (Homo sapiens [5]) | Activity [6] | Activity [7] | Activity (Homo sapiens [8]) | Activity (Arachis hypogaea) | Activity (Triticum aestivum) | Activity (Maackia amurensis) | Compound
Active | inactive | Active | Active | Active | inactive | Active | Active | Active | Active | inactive | Active | Active | inactive | CC[C@H](C)[C@H](NC(=O)[C@H](C)NC(=O)CNC(=O)[C@H](CCCNC(=N)N)NC(=O)[C@@H](NC(=O)CCCC(C)=O)[C@@H](C)O)C(=O)N[C@H](C(=O)N[C@@H](CCC(N)=O)C(=O)N[C@H](C(=O)N1CCC[C@H]1C(=O)N[C@H](C(=O)N[C@@H](CC(C)C)C(=O)NCC(=O)N1CCC[C@H]1C(=O)N[C@H](C(=O)N[C@@H](CCC(N)=O)C(=O)N1CCC[C@H]1C(=O)N[C@H](C(=O)N[C@@H](CCCNC(=N)N)C(=O)N[C@H](C(N)=O)C(C)C)[C@@H](C)O[C@H]1O[C@H](CO)[C@@H](O)[C@H](O)[C@@H]1O[C@@H]1O[C@H](CO)[C@@H](O[C@@H]2O[C@H](CO)[C@H](O)[C@H](O)[C@H]2O)[C@H](O)[C@H]1NC(C)=O)[C@@H](C)CC)[C@@H](C)O[C@H]1O[C@H](CO)[C@@H](O)[C@H](O)[C@@H]1O[C@@H]1O[C@H](CO)[C@@H](O[C@@H]2O[C@H](CO)[C@H](O)[C@H](O[C@]3(C(=O)O)C[C@H](O)[C@@H](NC(C)=O)[C@H]([C@H](O)[C@H](O)CO)O3)[C@H]2O)[C@H](O)[C@H]1NC(C)=O)[C@@H](C)O)[C@@H](C)CC ({Hexanoyl(5-oxo)}-TRGAIIQTPT(X1)LGPIQPT(X2)RV-NH2)
Active | inactive | Active | Active | Active | inactive | Active | Active | Active | Active | inactive | Active | Active | inactive | CC[C@H](C)[C@H](NC(=O)[C@H](C)NC(=O)CNC(=O)[C@H](CCCNC(=N)N)NC(=O)[C@@H](NC(=O)CCCC(C)=O)[C@@H](C)O)C(=O)N[C@H](C(=O)N[C@@H](CCC(N)=O)C(=O)N[C@H](C(=O)N1CCC[C@H]1C(=O)N[C@H](C(=O)N[C@@H](CC(C)C)C(=O)NCC(=O)N1CCC[C@H]1C(=O)N[C@H](C(=O)N[C@@H](CCC(N)=O)C(=O)N1CCC[C@H]1C(=O)N[C@H](C(=O)N[C@@H](CCCNC(=N)N)C(=O)N[C@H](C(N)=O)C(C)C)[C@@H](C)O[C@H]1O[C@H](CO)[C@@H](O)[C@H](O)[C@@H]1O[C@@H]1O[C@H](CO)[C@@H](O[C@@H]2O[C@H](CO)[C@H](O)[C@H](O)[C@H]2O)[C@H](O)[C@H]1NC(C)=O)[C@@H](C)CC)[C@@H](C)O)[C@@H](C)O[C@H]1O[C@H](CO)[C@@H](O)[C@H](O)[C@@H]1O[C@@H]1O[C@H](CO)[C@@H](O[C@@H]2O[C@H](CO)[C@H](O)[C@H](O)[C@H]2O)[C@H](O)[C@H]1NC(C)=O)[C@@H](C)CC ({Hexanoyl(5-oxo)}-TRGAIIQT(X2)PTLGPIQPT(X2)RV-NH2)
